These results are taken from ChEMBL document CHEMBL1817626, “The structure-activity relationship of urea derivatives as anti-tuberculosis agents” (Bioorg Med Chem, 2011).

pIC50: −log10 of the molar value. ≈ marks a conversion by molar mass, not a printed value.

The test system of one assay is Vero. Nature of the assay: Cytotoxicity against african green monkey Vero cells after 72 hrs by MTT assay. The class given is cell-based. Particulars: Chlorocebus sabaeus. In general terms: Formazan colour is commonly taken as a measure of viable cells.
In the next assay the test system is Pseudomonas aeruginosa. Nature of the assay: Antibacterial activity against Pseudomonas aeruginosa. Format: functional.
Another assay relates to Enterococcus faecalis. As to the kind of experiment: Antibacterial activity against Enterococcus faecalis. Format: functional.
A further assay deals with Bacillus anthracis. Nature of the assay: microbe, parasite or virus in culture.
Assay [1] deals with T1, Epoxide hydrolase B (Mycobacterium tuberculosis) (UniProt P95276).
T1 sequence (whole entry): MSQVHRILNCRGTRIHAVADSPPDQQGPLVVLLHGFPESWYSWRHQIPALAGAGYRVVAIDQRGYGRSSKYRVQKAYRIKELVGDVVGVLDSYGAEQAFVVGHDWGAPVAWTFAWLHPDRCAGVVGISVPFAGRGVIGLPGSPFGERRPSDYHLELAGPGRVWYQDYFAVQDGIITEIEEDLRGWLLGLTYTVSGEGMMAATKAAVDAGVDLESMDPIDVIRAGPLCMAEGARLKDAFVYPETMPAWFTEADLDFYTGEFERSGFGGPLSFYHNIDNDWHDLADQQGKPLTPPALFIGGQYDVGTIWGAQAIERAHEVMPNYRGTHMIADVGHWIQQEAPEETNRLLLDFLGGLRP
As to the kind of experiment: Inhibition of Mycobacterium tuberculosis recombinant EphB expressed in Escherichia coli BL21 using CMNPC as substrate at 10 nM after 30 mins by fluorescent assay relative to control.

For the next assay, the system named is Enterococcus faecium. As to the kind of experiment: Antibacterial activity against Enterococcus faecium. Format: functional.
In assay [2] the test system is Mycolicibacterium smegmatis. As to the kind of experiment: microbe, parasite or virus in culture. Conditions: str. MC2 155, 168 h.
Assay [3] concerns Escherichia coli. Nature of the assay: Antibacterial activity against Escherichia coli K12. Format: functional. Conditions: K-12.
Assay [4] relates to Mycobacterium tuberculosis. Nature of the assay: microbe, parasite or virus in culture. Particulars: H37Rv, 168 h.
A further assay has as its system Staphylococcus aureus. As to the kind of experiment: Antibacterial activity against Staphylococcus aureus. Format: functional.
The next assay concerns Klebsiella pneumoniae. Nature of the assay: Antibacterial activity against Klebsiella pneumoniae. The class given is functional.
Assay [5] relates to Escherichia coli. Nature of the assay: Antibacterial activity against Escherichia coli […] TolC. Format: functional.
The target in assay [6] is T2, Hydrolase, alpha/beta hydrolase fold family (Mycobacterium tuberculosis) (UniProt O69638).
T2 sequence (whole entry): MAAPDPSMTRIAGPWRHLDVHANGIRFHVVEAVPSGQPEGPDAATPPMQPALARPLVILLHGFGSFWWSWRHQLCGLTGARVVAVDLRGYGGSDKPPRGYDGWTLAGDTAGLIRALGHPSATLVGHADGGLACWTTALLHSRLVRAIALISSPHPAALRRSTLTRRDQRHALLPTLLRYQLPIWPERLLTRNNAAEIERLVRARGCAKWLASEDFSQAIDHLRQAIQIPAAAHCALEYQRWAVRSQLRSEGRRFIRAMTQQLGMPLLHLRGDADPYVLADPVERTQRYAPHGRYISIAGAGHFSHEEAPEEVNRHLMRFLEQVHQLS
As to the kind of experiment: Inhibition of Mycobacterium tuberculosis recombinant EphE expressed in Escherichia coli BL21 using CMNPC as substrate at 10 nM after 30 mins by fluorescent assay relative to control.

The target in assay [7] is T3, Bifunctional epoxide hydrolase 2 (Homo sapiens, UniProt P34913).
T3 sequence (P34913 whole entry): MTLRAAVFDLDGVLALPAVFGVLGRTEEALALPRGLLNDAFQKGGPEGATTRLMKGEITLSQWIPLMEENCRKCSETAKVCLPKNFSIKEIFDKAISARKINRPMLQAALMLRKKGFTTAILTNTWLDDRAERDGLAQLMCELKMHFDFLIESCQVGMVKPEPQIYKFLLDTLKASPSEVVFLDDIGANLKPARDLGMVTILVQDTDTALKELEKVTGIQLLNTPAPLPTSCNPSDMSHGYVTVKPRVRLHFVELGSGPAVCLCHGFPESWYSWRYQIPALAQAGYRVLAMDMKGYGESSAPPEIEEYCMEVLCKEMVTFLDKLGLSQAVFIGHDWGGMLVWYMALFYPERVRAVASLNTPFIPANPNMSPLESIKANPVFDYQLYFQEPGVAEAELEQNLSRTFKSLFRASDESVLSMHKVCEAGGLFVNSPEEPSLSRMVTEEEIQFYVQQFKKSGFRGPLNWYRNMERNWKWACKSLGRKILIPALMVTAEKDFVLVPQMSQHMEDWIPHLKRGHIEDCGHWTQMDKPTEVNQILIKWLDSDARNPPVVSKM
As to the kind of experiment: Inhibition of human recombinant soluble epoxide hydrolase using CMNPC as substrate after 10 mins by fluorescent assay.

One may read the IC50 as the concentration needed to halve the response being measured. By inhibition is commonly meant the relative decrease from the control value, in per cent. In general, pIC50 refers to the IC50 on a negative log10 scale, so that one unit is a factor of ten. In the case of `Cc1ccc(NC(=O)NC2CCCCCCC2)cc1Cl`, the IC50 with Vero is over 400 µg/mL. For the same compound, the MIC in the assay on Pseudomonas aeruginosa is over 200 µg/mL; with Enterococcus faecalis, over 200 µg/mL; against Bacillus anthracis, over 200 µg/mL; against Enterococcus faecium, over 200 µg/mL; in assay [2] it was 0.8 µg/mL (≈ 2.71 µM); in the assay on Escherichia coli [3], over 200 µg/mL. For the same compound, the MIC in assay [4] is 0.01 µg/mL (≈ 0.0339 µM); with Staphylococcus aureus it was over 200 µg/mL; in the assay with Klebsiella pneumoniae it was over 200 µg/mL; in the assay on Escherichia coli [5], over 200 µg/mL. Also, the inhibition in assay [1] was 83.6%; in assay [6] it was 98.2%. In [7], the pIC50 is 9.40.

`O=C(NC1CCCCC1)NC1C2CC3CC(C2)CC1C3` (stereo not drawn): the IC50 with Vero amounted to 25 µg/mL (≈ 90.4 µM). For the same compound, the MIC (against Pseudomonas aeruginosa; in the assay on Enterococcus faecalis; against Bacillus anthracis; in the assay with Enterococcus faecium; in assay [2]; with Escherichia coli [3]) was over 200 µg/mL throughout. For the same compound, the MIC in [4] was 10 µg/mL (≈ 36.2 µM); in the assay with Staphylococcus aureus, over 200 µg/mL; in the assay with Klebsiella pneumoniae, over 200 µg/mL; against Escherichia coli [5], over 200 µg/mL. Besides, the inhibition worked out at 11.6% in assay [1] and 70.2% in assay [6]. Besides, the pIC50 in assay [7] was 9.40.

`Cc1ccc(NC(=O)NCC23CC4CC(CC(C4)C2)C3)cc1Cl` had an IC50 with Vero of 4.34 µg/mL (≈ 13 µM). Besides, the MIC was over 200 µg/mL in the assay with Pseudomonas aeruginosa; over 200 µg/mL in the assay with Enterococcus faecalis; over 200 µg/mL in the assay with Bacillus anthracis; over 200 µg/mL against Enterococcus faecium; 0.8 µg/mL (≈ 2.4 µM) in assay [2]; over 200 µg/mL in the assay with Escherichia coli [3]. Further, the MIC in assay [4] was 0.02 µg/mL (≈ 0.0601 µM); against Staphylococcus aureus it was over 200 µg/mL; with Klebsiella pneumoniae, over 200 µg/mL; in the assay on Escherichia coli [5] it was over 200 µg/mL. The inhibition was found to be 33.9% in assay [1] and 94.1% in assay [6]. Also, in assay [7], the pIC50 is 9.40.

The compound `Cc1ccc(NC(=O)NC(C)CCc2ccccc2)cc1Cl` (stereo not drawn) yielded an IC50 with Vero of over 400 µg/mL. Further, the MIC was over 200 µg/mL in the assay with Pseudomonas aeruginosa; over 200 µg/mL in the assay on Enterococcus faecalis; over 200 µg/mL against Bacillus anthracis; over 200 µg/mL in the assay on Enterococcus faecium; 25 µg/mL (≈ 78.9 µM) in assay [2]; over 200 µg/mL in the assay with Escherichia coli [3]. For the same compound, the MIC in assay [4] is 6 µg/mL (≈ 18.9 µM); against Staphylococcus aureus it was over 200 µg/mL; in the assay on Klebsiella pneumoniae, over 200 µg/mL; with Escherichia coli [5], over 200 µg/mL. Further, the inhibition was determined as 81.9% in [1] and 97.4% in assay [6]. In [7], the pIC50 is 7.82.

In the case of `O=C(NCC12CC3CC(CC(C3)C1)C2)Nc1ccc(F)c(F)c1F`, in the assay on Vero, the 50% inhibitory concentration (IC50) is 1.18 µg/mL (≈ 3.49 µM). The MIC in the assay with Pseudomonas aeruginosa was 50 µg/mL (≈ 148 µM); in the assay with Enterococcus faecalis, over 200 µg/mL; in the assay with Bacillus anthracis it was 1.6 µg/mL (≈ 4.73 µM); in the assay with Enterococcus faecium, over 200 µg/mL; in assay [2] it was 0.8 µg/mL (≈ 2.36 µM); in the assay on Escherichia coli [3], over 200 µg/mL. Besides, the MIC is 0.01 µg/mL (≈ 0.0296 µM) in assay [4], 3.12 µg/mL (≈ 9.22 µM) in the assay on Staphylococcus aureus, over 200 µg/mL against Klebsiella pneumoniae and 1.6 µg/mL (≈ 4.73 µM) against Escherichia coli [5]. Besides, the figures for the inhibition in assay [1] and in assay [6] were 44.2% and 90.8%, respectively. Also, the pIC50 in [7] was 9.40.

With `Cc1c(Cl)cccc1NC(=O)NC1C2CC3CC(C2)CC1C3` (stereo not drawn), the IC50 in the assay with Vero stood at 26.4 µg/mL (≈ 82.8 µM). The MIC in the assay with Pseudomonas aeruginosa is over 200 µg/mL; with Enterococcus faecalis it was over 200 µg/mL; against Bacillus anthracis, over 200 µg/mL; against Enterococcus faecium it was over 200 µg/mL; in assay [2] it was over 100 µg/mL; with Escherichia coli [3] it was over 200 µg/mL. Further, the MIC was 1.6 µg/mL (≈ 5.02 µM) in assay [4], over 200 µg/mL against Staphylococcus aureus, over 200 µg/mL with Klebsiella pneumoniae and over 200 µg/mL with Escherichia coli [5]. The values for the inhibition in [1] and in assay [6] were 9.8% and 58.3%, respectively. Also, the pIC50 in assay [7] is 8.35.

As to `CCCCCNC(=O)NC1C2CC3CC(C2)CC1C3` (stereo not drawn), the IC50 in the assay with Vero was found to be 11.6 µg/mL (≈ 43.9 µM). For the same compound, the MIC with Pseudomonas aeruginosa was over 200 µg/mL; with Enterococcus faecalis it was over 200 µg/mL; in the assay on Bacillus anthracis, over 200 µg/mL; in the assay with Enterococcus faecium, over 200 µg/mL; in assay [2], 12.5 µg/mL (≈ 47.3 µM); against Escherichia coli [3], over 200 µg/mL. The MIC was 0.39 µg/mL (≈ 1.47 µM) in assay [4], over 200 µg/mL in the assay with Staphylococcus aureus, over 200 µg/mL in the assay on Klebsiella pneumoniae and over 200 µg/mL against Escherichia coli [5]. In addition, the inhibition was found to be 58.6% in assay [1] and 90.5% in [6]. Moreover, in [7], the negative-log IC50 (pIC50) was 8.19.
